We go through nine compounds from ChEMBL document CHEMBL1201862, “PubChem BioAssay data set” (2004).

Among the test systems are 786-0; COLO 205; HCT-15; HOP-62; K562; LOX IMVI; LXFL 529; M14; NCI-H460; OVCAR-4; OVCAR-5; OVCAR-8; RPMI-8226; SF-268; U-251; UACC-62.
Holding throughout (experiment): inhibition of tumour cell growth, NCI panel, 48 h

Structures are written as SMILES.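 All cell lines were grown in 96-well plates and treated with compound for 48 hours. GI50 = concentration required for 50% inhibition of growth.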 Active and inactive are the calls of the source. No stated cut-off is given here; in the data, active = GI50 up to about 1.1 µM and inactive = higher.

In the case of `CC(C)=CCC/C(C)=C/Cc1c(O)ccc2c1[nH]c1cc(O)c(C)cc12`, the GI50 with 786-0 was 9.48 µM (inactive); with COLO 205, > 25 µM (inactive); in the experiment with HCT-15 it was 9.71 µM; with HOP-62, 7.62 µM (inactive); in the experiment with K562 it was 9.38 µM (inactive); with LOX IMVI, 8.36 µM (inactive). The GI50 in the experiment with LXFL 529 was 10.1 µM (inactive); in the experiment on M14 it was 11.8 µM (inactive); in the experiment on NCI-H460, 11.9 µM (inactive); with OVCAR-4, 3.78 µM (inactive); in the experiment with OVCAR-5 it was > 25 µM (inactive); in the experiment with OVCAR-8, 9.46 µM (inactive). Moreover, the GI50 was 17.8 µM (inactive) in the experiment with RPMI-8226, 10.7 µM (inactive) in the experiment on SF-268, 10 µM (inactive) in the experiment with U-251 and 16.9 µM (inactive) with UACC-62.

Consider `CCOc1ccc(OCC(=O)O)c2c1CCCC2=O`, for which the GI50 with 786-0 was > 100 µM (inactive); in the experiment with COLO 205 it was > 100 µM (inactive); in the experiment on HCT-15 it was over 100 µM; with HOP-62, > 100 µM (inactive); with K562 it was > 10 µM (inactive); with LOX IMVI, > 100 µM (inactive). In addition, the GI50 in the experiment on LXFL 529, in the experiment on M14, with NCI-H460, with OVCAR-4, in the experiment on OVCAR-5 and in the experiment with OVCAR-8 was > 100 µM (inactive) in each case. The GI50 in the experiment with RPMI-8226, in the experiment on SF-268, in the experiment on U-251 and in the experiment with UACC-62 was > 100 µM (inactive) throughout.

Take `CCN(CC)/C(=C\Cl)Nc1ccccn1.[O-][Cl+3]([O-])([O-])O`: the GI50 in the experiment on 786-0 is > 100 µM (inactive); with COLO 205, > 100 µM (inactive); with HCT-15, over 100 µM; in the experiment with HOP-62, > 100 µM (inactive); with K562, > 100 µM (inactive); with LOX IMVI it was > 100 µM (inactive). The GI50 in the experiment with LXFL 529, with M14, in the experiment on NCI-H460, with OVCAR-4, in the experiment with OVCAR-5 and in the experiment with OVCAR-8 was > 100 µM (inactive) throughout. In addition, the GI50 in the experiment with RPMI-8226, in the experiment on SF-268, in the experiment with U-251 and with UACC-62 was > 100 µM (inactive) each time.

For the compound `CCCNC(=O)c1cc2ccccc2cc1C(=O)OC`, the GI50 was > 100 µM (inactive) with 786-0; > 100 µM (inactive) in the experiment with COLO 205; over 100 µM in the experiment with HCT-15; > 100 µM (inactive) with HOP-62; > 100 µM (inactive) with K562; > 100 µM (inactive) in the experiment with LXFL 529. Also, the GI50 in the experiment on M14 is > 100 µM (inactive); in the experiment with NCI-H460 it was > 100 µM (inactive); in the experiment with OVCAR-4, > 100 µM (inactive); with OVCAR-5, > 100 µM (inactive); in the experiment with OVCAR-8, > 100 µM (inactive); in the experiment on RPMI-8226, 60.8 µM (inactive). Besides, the GI50 in the experiment on SF-268, in the experiment with U-251 and in the experiment on UACC-62 was > 100 µM (inactive) in each case.

`Cc1nc(Nc2ccc(Cl)cc2)sc1C(=O)NNc1ccc([N+](=O)[O-])cc1[N+](=O)[O-]`: the GI50 in the experiment on 786-0 is 16.3 µM (inactive); in the experiment on COLO 205 it was 19.8 µM (inactive); in the experiment on HOP-62 it was 12.2 µM (inactive); with K562, 16.8 µM (inactive); with LOX IMVI it was 15.1 µM (inactive); with LXFL 529, 17.1 µM (inactive). For the same compound, the GI50 in the experiment with M14 is 24.7 µM (inactive); in the experiment with NCI-H460 it was 18 µM (inactive); with OVCAR-4, 18.4 µM (inactive); in the experiment on OVCAR-5 it was 16.3 µM (inactive); in the experiment with OVCAR-8, 21.4 µM (inactive); with RPMI-8226, 18.2 µM (inactive). In addition, the GI50 is 18.7 µM (inactive) with SF-268, 15.6 µM (inactive) with U-251 and 14.3 µM (inactive) with UACC-62.

On to `CCCCCCCC(=O)OCC1OC(n2cc(F)c(=O)[nH]c2=O)C(N)C(OC(=O)CCCCCCC)C1O` (stereo not given), for which the GI50 with 786-0 was 19.4 µM (inactive); in the experiment on COLO 205, 18.5 µM (inactive); in the experiment on HCT-15 it was 18.5 µM; in the experiment on HOP-62 it was 18.6 µM (inactive); with LOX IMVI, 18.5 µM (inactive); in the experiment with LXFL 529, 17.1 µM (inactive). Besides, the GI50 is 17.9 µM (inactive) in the experiment on M14; 19.4 µM (inactive) in the experiment on NCI-H460; 15.2 µM (inactive) in the experiment with OVCAR-4; 17.8 µM (inactive) in the experiment on OVCAR-8; 23.2 µM (inactive) with RPMI-8226; 18.5 µM (inactive) in the experiment on SF-268. In addition, the GI50 with U-251 was 19.5 µM (inactive); with UACC-62, 17.8 µM (inactive).

Consider `CCCCOC(=O)NC(=O)c1cn(CCCOC(=O)CCCCCCCCC(=O)OCCCn2cc(C(=O)NC(=O)OCCCC)c(=O)n(C)c2=O)c(=O)n(C)c1=O`, for which the GI50 with 786-0 was > 100 µM (inactive); in the experiment on COLO 205 it was > 100 µM (inactive); in the experiment on HCT-15 it was over 100 µM; with HOP-62 it was > 100 µM (inactive); in the experiment with K562, > 100 µM (inactive); with LXFL 529, > 100 µM (inactive). In addition, the GI50 in the experiment with M14, in the experiment on NCI-H460, in the experiment on OVCAR-4, with OVCAR-5, in the experiment on OVCAR-8 and with RPMI-8226 was > 100 µM (inactive) in each case. Besides, the GI50 with SF-268, with U-251 and with UACC-62 was > 100 µM (inactive) each time.

With `Cc1cc(NS(=O)(=O)c2ccc(NC(=O)c3cccn4c(=O)c5ccccc5nc34)cc2)no1`, the GI50 with 786-0, with COLO 205, with HOP-62, in the experiment on K562, in the experiment with LOX IMVI and with LXFL 529 was > 100 µM (inactive) throughout. For the same compound, the GI50 in the experiment on M14, in the experiment on NCI-H460, in the experiment with OVCAR-4, in the experiment on OVCAR-8, in the experiment with RPMI-8226 and in the experiment on SF-268 was > 100 µM (inactive) throughout. Also, the GI50 with U-251 and in the experiment on UACC-62 was > 100 µM (inactive) in each case.

With `Cc1ncc(CCl)c2c1OC(C)(C)OC2`, the GI50 in the experiment on 786-0 is 20.8 µM (inactive); in the experiment with HOP-62 it was > 100 µM (inactive); in the experiment with K562, 41.2 µM (inactive); in the experiment with LOX IMVI it was 17.3 µM (inactive); in the experiment with LXFL 529 it was > 100 µM (inactive); in the experiment on M14 it was 36.4 µM (inactive). Further, the GI50 in the experiment with NCI-H460 was > 100 µM (inactive); in the experiment on OVCAR-4 it was 15.1 µM (inactive); in the experiment on OVCAR-5 it was 22.3 µM (inactive); with OVCAR-8, 67.1 µM (inactive); in the experiment on RPMI-8226, 37.2 µM (inactive); in the experiment with SF-268, 22.8 µM (inactive). Also, the results for the GI50 with U-251 and in the experiment with UACC-62 were 14.4 µM (inactive) and > 100 µM (inactive), respectively.
